Patent US12318452B2, “Degraders of WEE1 kinase” (DANA-FARBER CANCER INSTITUTE, INC., priority 2018, dated 2025)

How the values were obtained:
MCF10A cells = experiment: Image-based cell cycle assay in non-transformed mammary epithelial cells; settings: data not shown
Experimental: HCC1806, BT549, and Kuramochi cells were maintained in RPMI (Corning®, Corning, NY) supplemented with 10% fetal bovine serum (FBS) (Life Technologies™, Carlsbad, CA) and 1% penicillin/streptomycin (Corning, Corning®, NY). OVCAR8 cells were maintained as above with the addition of 2 mM L-glutamine (Life Technologies™, Carlsbad, CA). MCF10A cells were maintained in a 1:1 mix of DMEM:F12 supplemented with 5% horse serum (Life Technologies™ Carlsbad, CA), 1% penicillin/streptomycin (Corning®, Corning, NY), 20 ng/ml EGF (Peprotech®, Rocky Hill, NJ), 500 ng/ml hydrocortisone (Sigma-Aldrich®, St. Louis, MO), 10 μg/ml insulin (Sigma-Aldrich®, St. Louis, MO), and 100 ng/ml cholera toxin (Sigma-Aldrich®, St. Louis, MO). COV362 cells were maintained in DMEM (Corning®, Corning, NY) supplemented with 10% FBS (Life Technologies™, Carlsbad, CA), 1% penicillin/streptomycin (Corning®, Corning, NY) and 2 mM L-glutamine (Life Technologies™, Carlsbad, CA). The OCE1 cells were maintained in FOMI (Wit-Fo) (PMID: 24303006) supplemented with 25 ng/ml cholera toxin (Sigma-Aldrich®, St. Louis, MO). […]
Fixed cells were imaged with a 10× objective using an Operetta microscope and analyzed using the Columbus image data storage and analysis system (PerkinElmer®, Waltham, MA). […] The average LDR, EdU and phospho-histone H3 intensities within the nuclear masks were determined. […]

CRBN−/− MOLT4 cells = experiment: CellTiter-Glo cell viability, 72 hours; type: cell-based

Structure (SMILES): C=CCn1c(=O)c2cnc(Nc3ccc(N4CCN(CCCNc5cccc6c5C(=O)N(C5CCC(=O)NC5=O)C6=O)CC4)cc3)nc2n1-c1cccc(C(C)(C)O)n1 (stereo not shown) [Compound 13, 4-((3-(4-(4-((2-allyl-1-(6-(2-hydroxypropan-2-yl)pyridin-2-yl)-3-oxo-2,3-dihydro-1H-pyrazolo[3,4-d]pyrimidin-6-yl)amino)phenyl)piperazin-1-yl)propyl)amino)-2-(2,6-dioxopiperidin-3-yl)isoindoline-1,3-dione]
- Effect on mitotic cell number (MCF10A cells): very little effect
- Rescue of anti-proliferative activity, CRBN−/− versus WT MOLT4 cells (CRBN−/− MOLT4 cells; Example 28, FIG. 3A/3B, 72-hour): ~15 fold
- Shift in cellular IC50, CRBN−/− versus parental MOLT4 cells (CRBN−/− MOLT4 cells; Example 32, FIG. 6A): approximately 6 fold
- IC50 (CRBN−/− MOLT4 cells; Homo sapiens, MOLT-4, MOLT4 CRBN−/− cells, 72 hours, CellTiter-Glo, read-out: Antiproliferative IC50): 2220 nM
